Reference: publication PMC5739799 (Oncotarget, 2017)
Where two headings read alike, the source gives them in different places.

What was measured:
HCC-PDX model 19 = assay: Patient-derived HCC xenograft model 19, tumor growth; type: in vivo, BALB/c nude mice; conditions: for Mean TV: day 28, R 10 / S 30 mg/kg/day oral starting dose; for RTV: end of study
Experimental: (§1) The PDX studies were carried out by WuXi AppTec (Shanghai, China). HCC-PDX models were originally established from surgically resected tumor tissue that was implanted in 6–8-week-old female BALB/c nude mice. Animal studies were performed according to the guidelines approved by the Institutional Animal Care and Use Committee of Wuxi AppTec, which follow the guidance of the Association for the Assessment and Accreditation of Laboratory Animal Care. Animals were routinely monitored for their health status and their body weights. Treatment was suspended and/or doses reduced at body weight losses >10%. Animals were euthanized when the tumor size exceeded 2000 mm^3. Pieces from tumor xenografts (∼30 mm^3) from passages 4–8 (ST1) were implanted subcutaneously at the right flank, and tumors were grown to an average size of about 150–200 mm^3. […] Tumor size was measured twice weekly using caliper measurements. Tumor volume (mm^3) was calculated using the formula 0.5 a × b^2, where a and b are the long and short diameters of the tumor, respectively. TGI was assessed either by calculating the ratio of the mean tumor volumes of treated and control groups or by determination of the RTV, which relates tumor volumes at any given day of treatment to the volume at the first treatment day.
(§2) In the syngenic orthotopic H129 model, differences in survival times between groups were analyzed for significance using log-rank tests. Analysis of tumor volumes of the HCC-PDX models was performed with log2-transformed values on defined days of measurement based on the assumption of their log-normal distribution. […] All respective statistical test results were derived from a common linear model that allows for individual variances in the different groups. The adjustment for multiple testing was carried out using Šidák correction at a significance level of 0.05. Back transformation of the mean difference of log2-transformed tumor volumes led to the ratios of the compared groups, whereby ratios of 1 reflect no difference in tumor volumes and ratios below or above 1 reflect smaller or larger tumor volumes, respectively, of the respective second group. The analyses of RTV were carried out in a similar fashion without the log2 transformation of values. Bead-based western data were analyzed (described in [15]) using the MEV 4.8.1 software package. A p-value <0.05 was regarded as significant. All statistical analyses were performed with SAS® 9.4 [34].

HCC-PDX model 20 = assay: Patient-derived HCC xenograft model 20, tumor growth; type: in vivo, BALB/c nude mice; conditions: for Mean TV: day 21, R 10 / S 30 mg/kg/day oral; for RTV: end of study
Experimental: as §1, §2

[1] = test system: uHCC progressed on sorafenib treatment; parameters: method as in PMID 27932229; conditions: patients with uHCC who progressed on sorafenib, cited from earlier work
[2] = test system: HCC-PDX model 189 xenografts; assay: DigiWest bead-based multiplex western blot of treated xenografts; type: in vivo, BALB/c nude mice; conditions: 24 hours after last dose, sorafenib 30 mg/kg/day
Experimental: For high-content Western analysis, DigiWest was performed as described by Treindl et al.. In brief, xenograft tissue was ground by a Mikro-Dismembrator (Sartorius) and subsequently lysed by the addition of 2× LDS lysis buffer (Life Technologies™) and heated to 95°C for 9 minutes with several vortexing steps. Undissolved material was removed by consecutive centrifugation at 20°C for 2 minutes at 300 x g, 5 minutes at 16,000 x g, and through a QIAshredder homogenizer tube (Qiagen) for 5 minutes at 16,000 x g. Protein concentration was determined by in-gel staining. 3 μL lysate was separated by SDS-PAGE stained with IRDye® Blue and detected with a Li-COR Odyssey Infrared Imaging System (Li-COR Biosciences, Bad Homburg, Germany) at 700 nm. Next, 12 μg protein per sample was separated using 4–12% Bis-Tris gels (Life Technologies™) according to the manufacturer’s instructions. Blotting onto PVDF membranes (Millipore) was performed under standard conditions. Proteins immobilized on the blotting membrane were biotinylated (NHS-PEG12-Biotin, Thermo Scientific) and individual sample lanes were cut into 96 strips each (height 0.5 mm each, strip width 7.5 mm) using an electronic cutting tool (Silhouette SD). Each individual strip was placed in a separate well of a 96-well plate, and protein was eluted for 2 hours in 10 μL elution buffer (8 M urea, 1% Triton-X100 in 100 mM Tris-HCl, pH 9.5). After the addition of 90 μL of dilution buffer (5% BSA in PBS, 0.02% sodium azide, 0.05% Tween-20), 96 different Neutravidin-coated Luminex bead sets (40,000 beads/well) were added to the individual wells, and eluted biotinylated proteins were captured on the bead surface during overnight incubation. After incubation, the Luminex beads were pooled, washed, and stored in storage buffer (1% BSA, 0.05% Tween-20, 0.05% sodium azide in PBS) at 4°C.
For antibody incubation, an aliquot of the bead pool was transferred into an assay plate and 30 μL of diluted western blot antibody in assay buffer (Blocking Reagent, Roche Applied Science; 0.05% Tween 20, 0.02% sodium azide, 0.2% milk powder) was added per well. 116 antibody incubations on 12 samples were performed overnight at 4°C. For read-out, beads were washed twice with 100 μL of PBST before species-specific PE-labeled secondary antibodies (Jackson) were added in 30 μL of assay buffer for 1 hour. […]
DigiWest analysis was performed as previously described. In brief, data generated by the Luminex instrument were analyzed using a dedicated analysis tool that visualizes the fluorescent signals as bar graphs and identifies antibody-specific peaks. […] After background correction, specific signal intensities are calculated as the integral of the identified peak.

unresectable HCC (uHCC) [3] = conditions: patients with uHCC; placebo 7.9 months; cited from earlier work
unresectable HCC (uHCC) [4] = conditions: placebo 4.2 months; cited from earlier work

Row | SMILES | Mean TV (HCC-PDX model 19) [mm^3] | log TV Differences of least square-means, compound vs vehicle (HCC-PDX model 19; day 28, log2-transformed TV) | RTV Differences of least square-means, compound vs vehicle (HCC-PDX model 19; day 42) | RTV (HCC-PDX model 19; day 42) | Mean TV (HCC-PDX model 20) [mm^3] | log TV Differences of least square-means, compound vs vehicle (HCC-PDX model 20; day 21, log2-transformed TV) | RTV Differences of least square-means, compound vs vehicle (HCC-PDX model 20; day 42) | RTV (HCC-PDX model 20; day 42) | also measured
1 | CNC(=O)c1cc(Oc2ccc(NC(=O)Nc3ccc(Cl)c(C(F)(F)F)c3)c(F)c2)ccn1 [Regorafenib] | 542.38 | -0.6083 | -24.1 | 5.21 | 742.98 | -0.4621 | -23.2 | 9.46 | log TV Ratio, compound vs vehicle (T/C) (HCC-PDX model 19; day 28): 0.66; log TV Ratio, regorafenib vs sorafenib (HCC-PDX model 19; day 28): 1.06; log TV Differences of least square-means, regorafenib vs sorafenib (HCC-PDX model 19; day 28, log2-transformed TV): 0.08047; RTV Differences of least square-means, regorafenib vs sorafenib (HCC-PDX model 19; day 42): 0.5174; log TV Ratio, compound vs vehicle (T/C) (HCC-PDX model 20; day 21): 0.73; log TV Ratio, regorafenib vs sorafenib (HCC-PDX model 20; day 21): 0.93; log TV Differences of least square-means, regorafenib vs sorafenib (HCC-PDX model 20; day 21, log2-transformed TV): -0.1048; RTV Differences of least square-means, regorafenib vs sorafenib (HCC-PDX model 20; day 42): -11; Hazard ratio for OS vs placebo ([1]; 95% CI 0.50, 0.79): 0.63; Median OS ([1]; placebo 7.8 months): 10.6 months
2 | CNC(=O)c1cc(Oc2ccc(NC(=O)Nc3ccc(Cl)c(C(F)(F)F)c3)cc2)ccn1 [Sorafenib] | 496.54 | -0.6887 | -29.3 | 4.70 | 737.74 | -0.3573 | -12.2 | 10.55 | FGF-1 protein expression vs vehicle [2]: downregulated; Full-length PARP protein expression vs vehicle [2]: significantly downregulated; Mst2 protein expression vs vehicle [2]: downregulated; cdc2-pY15 protein expression vs vehicle [2]: downregulated; Median OS (unresectable HCC (uHCC) [3]): 10.7 months; Median OS (unresectable HCC (uHCC) [4]): 6.5 months
